Measured values reported in the supplement of paper PMC8967900.

What was measured:
Experiment in all cases: selective drug sensitivity score (sDSS, relative to normal bone marrow) (sDSS (score)); higher = more potent and effective on the cell line relative to normal bone marrow cells
Conditions in all cases: 72 h
COG-LL-355h = tested on: COG-LL-355h
MOLT-14 = tested on: MOLT-14
P12-ICHIKAWA = tested on: P12-ICHIKAWA
KARPAS-45 = tested on: KARPAS-45
ALL-PO = tested on: ALL-PO
RCH-ACV = tested on: RCH-ACV
P30-OHKUBO = tested on: P30-OHKUBO
DND-41 = tested on: DND-41
COG-LL-319h = tested on: COG-LL-319h
RPMI-8402 = tested on: RPMI-8402
PEER = tested on: PEER
MHH-CALL-2 = tested on: MHH-CALL-2
HAL-01 = tested on: HAL-01
REH = tested on: REH
CCRF-HSB2 = tested on: CCRF-HSB2
TANOUE = tested on: TANOUE
COG-LL-332h = tested on: COG-LL-332h
SEM cells = tested on: SEM cells
MN-60 = tested on: MN-60
MOLT-16 = tested on: MOLT-16
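Also: ALL cell lines in 384-well plates, five doses spanning 10,000-fold, each plate scaled between vehicle and 100 µmol/L benzalkonium chloride controls, sDSS an adapted area-under-curve metric.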

Cc1c(F)cc(C(=O)NC2CC2)cc1-c1ccc(C(=O)NCC(C)(C)C)cn1 [Losmapimod] (top concentration 10000 nM)
selective drug sensitivity score (COG-LL-355h): 1.92
selective drug sensitivity score (MOLT-14): -0.18
selective drug sensitivity score (P12-ICHIKAWA): -0.18
selective drug sensitivity score (KARPAS-45): -0.18
selective drug sensitivity score (ALL-PO): -0.18
selective drug sensitivity score (RCH-ACV): 11.5
selective drug sensitivity score (P30-OHKUBO): 7.82
selective drug sensitivity score (DND-41): -0.18
selective drug sensitivity score (COG-LL-319h): -0.18
selective drug sensitivity score (RPMI-8402): -0.18
selective drug sensitivity score (PEER): -0.08
selective drug sensitivity score (MHH-CALL-2): -0.18
selective drug sensitivity score (HAL-01): -0.08
selective drug sensitivity score (REH): -0.18
selective drug sensitivity score (CCRF-HSB2): -0.08
selective drug sensitivity score (TANOUE): 1.32
selective drug sensitivity score (COG-LL-332h): -0.18
selective drug sensitivity score (SEM cells): -0.18
selective drug sensitivity score (MN-60): -0.18
selective drug sensitivity score (MOLT-16): 0.12

C[C@]12CC[C@H](O)CC1=CC[C@@H]1[C@@H]2CC[C@]2(C)C(c3cccnc3)=CC[C@@H]12 [Abiraterone] (top concentration 5000 nM)
selective drug sensitivity score (COG-LL-355h): -0.12
selective drug sensitivity score (MOLT-14): -0.12
selective drug sensitivity score (P12-ICHIKAWA): -0.12
selective drug sensitivity score (KARPAS-45): -0.12
selective drug sensitivity score (ALL-PO): 3.48
selective drug sensitivity score (RCH-ACV): -0.02
selective drug sensitivity score (P30-OHKUBO): 1.48
selective drug sensitivity score (DND-41): -0.12
selective drug sensitivity score (COG-LL-319h): 0.08
selective drug sensitivity score (RPMI-8402): -0.12
selective drug sensitivity score (PEER): -0.12
selective drug sensitivity score (MHH-CALL-2): 0.88
selective drug sensitivity score (HAL-01): -0.12
selective drug sensitivity score (REH): -0.12
selective drug sensitivity score (CCRF-HSB2): -0.12
selective drug sensitivity score (TANOUE): -0.12
selective drug sensitivity score (COG-LL-332h): -0.12
selective drug sensitivity score (SEM cells): -0.12
selective drug sensitivity score (MN-60): -0.12
selective drug sensitivity score (MOLT-16): 1.28

O=c1[nH]cc(F)c(=O)[nH]1 [Fluorouracil] (top concentration 10000 nM)
selective drug sensitivity score (COG-LL-355h): 1.76
selective drug sensitivity score (MOLT-14): 5.76
selective drug sensitivity score (P12-ICHIKAWA): 0.46
selective drug sensitivity score (KARPAS-45): 0.46
selective drug sensitivity score (ALL-PO): 8.56
selective drug sensitivity score (RCH-ACV): 2.96
selective drug sensitivity score (P30-OHKUBO): 3.16
selective drug sensitivity score (DND-41): -0.64
selective drug sensitivity score (COG-LL-319h): 6.56
selective drug sensitivity score (RPMI-8402): 2.66
selective drug sensitivity score (PEER): -0.64
selective drug sensitivity score (MHH-CALL-2): -0.04
selective drug sensitivity score (HAL-01): -0.44
selective drug sensitivity score (REH): 1.76
selective drug sensitivity score (CCRF-HSB2): -0.64
selective drug sensitivity score (TANOUE): -0.64
selective drug sensitivity score (COG-LL-332h): 4.26
selective drug sensitivity score (SEM cells): 2.76
selective drug sensitivity score (MN-60): -0.64
selective drug sensitivity score (MOLT-16): 6.36

CNC(=O)c1ccc(-c2cnc3ncc(Cc4ccc5ncccc5c4)n3n2)cc1F [Capmatinib] (top concentration 1000 nM)
selective drug sensitivity score (COG-LL-355h): 0.04
selective drug sensitivity score (MOLT-14): -0.06
selective drug sensitivity score (P12-ICHIKAWA): -0.06
selective drug sensitivity score (KARPAS-45): -0.06
selective drug sensitivity score (ALL-PO): -0.06
selective drug sensitivity score (RCH-ACV): -0.06
selective drug sensitivity score (P30-OHKUBO): -0.06
selective drug sensitivity score (DND-41): 0.34
selective drug sensitivity score (COG-LL-319h): 14.9
selective drug sensitivity score (RPMI-8402): -0.06
selective drug sensitivity score (PEER): -0.06
selective drug sensitivity score (MHH-CALL-2): -0.06
selective drug sensitivity score (HAL-01): 2.34
selective drug sensitivity score (REH): -0.06
selective drug sensitivity score (CCRF-HSB2): -0.06
selective drug sensitivity score (TANOUE): 0.44
selective drug sensitivity score (COG-LL-332h): -0.06
selective drug sensitivity score (SEM cells): -0.06
selective drug sensitivity score (MN-60): -0.06
selective drug sensitivity score (MOLT-16): 0.04

COc1cc(NS(C)(=O)=O)ccc1Nc1c2ccccc2nc2ccccc12 [Amsacrine] (top concentration 10000 nM)
selective drug sensitivity score (COG-LL-355h): 11
selective drug sensitivity score (MOLT-14): 18.8
selective drug sensitivity score (P12-ICHIKAWA): 13.5
selective drug sensitivity score (KARPAS-45): 1.76
selective drug sensitivity score (ALL-PO): 5.66
selective drug sensitivity score (RCH-ACV): 24.7
selective drug sensitivity score (P30-OHKUBO): 13
selective drug sensitivity score (DND-41): 4.16
selective drug sensitivity score (COG-LL-319h): 18.2
selective drug sensitivity score (RPMI-8402): 14.4
selective drug sensitivity score (PEER): 3.16
selective drug sensitivity score (MHH-CALL-2): 10.5
selective drug sensitivity score (HAL-01): 14.1
selective drug sensitivity score (REH): 19.1
selective drug sensitivity score (CCRF-HSB2): 22.5
selective drug sensitivity score (TANOUE): -11.2
selective drug sensitivity score (COG-LL-332h): 20.1
selective drug sensitivity score (SEM cells): 12.8
selective drug sensitivity score (MN-60): -1.84
selective drug sensitivity score (MOLT-16): 27.1

C=C1C[C@@H]2CC[C@@]34C[C@H]5O[C@H]6[C@@H](O3)[C@H]3O[C@H](CC[C@@H]3O[C@H]6[C@H]5O4)CC(=O)C[C@@H]3[C@@H](OC)[C@@H](C[C@H](O)CN)O[C@H]3C[C@H]3O[C@@H](CC[C@@H]1O2)C[C@@H](C)C3=C [Eribulin] (top concentration 1000 nM)
selective drug sensitivity score (COG-LL-355h): 4.4
selective drug sensitivity score (MOLT-14): 25.2
selective drug sensitivity score (P12-ICHIKAWA): 16.7
selective drug sensitivity score (KARPAS-45): 21.7
selective drug sensitivity score (ALL-PO): 16.3
selective drug sensitivity score (RCH-ACV): 25.4
selective drug sensitivity score (P30-OHKUBO): 19.6
selective drug sensitivity score (DND-41): 9.1
selective drug sensitivity score (COG-LL-319h): 14.8
selective drug sensitivity score (RPMI-8402): 22.1
selective drug sensitivity score (PEER): 23.6
selective drug sensitivity score (MHH-CALL-2): 15.8
selective drug sensitivity score (HAL-01): 4.6
selective drug sensitivity score (REH): 18.9
selective drug sensitivity score (CCRF-HSB2): 22.8
selective drug sensitivity score (TANOUE): -8.6
selective drug sensitivity score (COG-LL-332h): 20.6
selective drug sensitivity score (SEM cells): 22.1
selective drug sensitivity score (MN-60): 3.8
selective drug sensitivity score (MOLT-16): 28.6

CS(=O)(=O)CCNCc1ccc(-c2ccc3ncnc(Nc4ccc(OCc5cccc(F)c5)c(Cl)c4)c3c2)o1 [Lapatinib] (top concentration 1000 nM)
selective drug sensitivity score (COG-LL-355h): 0
selective drug sensitivity score (MOLT-14): 0
selective drug sensitivity score (P12-ICHIKAWA): 0
selective drug sensitivity score (KARPAS-45): 0
selective drug sensitivity score (ALL-PO): 0
selective drug sensitivity score (RCH-ACV): 0
selective drug sensitivity score (P30-OHKUBO): 0.3
selective drug sensitivity score (DND-41): 0
selective drug sensitivity score (COG-LL-319h): 0
selective drug sensitivity score (RPMI-8402): 0
selective drug sensitivity score (PEER): 0
selective drug sensitivity score (MHH-CALL-2): 12.1
selective drug sensitivity score (HAL-01): 2.2
selective drug sensitivity score (REH): 0
selective drug sensitivity score (CCRF-HSB2): 0
selective drug sensitivity score (TANOUE): 0
selective drug sensitivity score (COG-LL-332h): 0
selective drug sensitivity score (SEM cells): 0
selective drug sensitivity score (MN-60): 0
selective drug sensitivity score (MOLT-16): 0

Cc1c(Cn2c(C)nc3c(C(=O)O)cc(N4CCOCC4)cc32)cccc1C(F)(F)F (top concentration 10000 nM)
selective drug sensitivity score (COG-LL-355h): 1.98
selective drug sensitivity score (MOLT-14): 0.38
selective drug sensitivity score (P12-ICHIKAWA): -0.02
selective drug sensitivity score (KARPAS-45): 0.08
selective drug sensitivity score (ALL-PO): 0.08
selective drug sensitivity score (RCH-ACV): 5.18
selective drug sensitivity score (P30-OHKUBO): 2.38
selective drug sensitivity score (DND-41): 1.78
selective drug sensitivity score (COG-LL-319h): -0.02
selective drug sensitivity score (RPMI-8402): -0.02
selective drug sensitivity score (PEER): -0.02
selective drug sensitivity score (MHH-CALL-2): 0.58
selective drug sensitivity score (HAL-01): 9.28
selective drug sensitivity score (REH): 0.68
selective drug sensitivity score (CCRF-HSB2): -0.02
selective drug sensitivity score (TANOUE): -0.02
selective drug sensitivity score (COG-LL-332h): 0.98
selective drug sensitivity score (SEM cells): 0.58
selective drug sensitivity score (MN-60): -0.02
selective drug sensitivity score (MOLT-16): -0.02

O=C1CN2Cc3c(ccc(Cl)c3Cl)N=C2N1 [Anagrelide] (top concentration 10000 nM)
selective drug sensitivity score (COG-LL-355h): 4.6
selective drug sensitivity score (MOLT-14): 0
selective drug sensitivity score (P12-ICHIKAWA): 0
selective drug sensitivity score (KARPAS-45): 0
selective drug sensitivity score (ALL-PO): 1
selective drug sensitivity score (RCH-ACV): 0
selective drug sensitivity score (P30-OHKUBO): 0
selective drug sensitivity score (DND-41): 0
selective drug sensitivity score (COG-LL-319h): 0
selective drug sensitivity score (RPMI-8402): 0
selective drug sensitivity score (PEER): 0
selective drug sensitivity score (MHH-CALL-2): 1.5
selective drug sensitivity score (HAL-01): 0
selective drug sensitivity score (REH): 0
selective drug sensitivity score (CCRF-HSB2): 0
selective drug sensitivity score (TANOUE): 0
selective drug sensitivity score (COG-LL-332h): 0
selective drug sensitivity score (SEM cells): 0
selective drug sensitivity score (MN-60): 0
selective drug sensitivity score (MOLT-16): 0
